Assay results as given in ChEMBL document CHEMBL5113535, “The Design, Synthesis, and Evaluation of Novel 9-Arylxanthenedione-Based Allosteric Modulators for the δ-Opioid Receptor” (J Med Chem, 2022).

These compounds were tested against T1, Delta-type opioid receptor (Homo sapiens, UniProt P41143). Details: CHO, filed as modulator, time 1.0 hrs.
T1 sequence (P41143 whole entry): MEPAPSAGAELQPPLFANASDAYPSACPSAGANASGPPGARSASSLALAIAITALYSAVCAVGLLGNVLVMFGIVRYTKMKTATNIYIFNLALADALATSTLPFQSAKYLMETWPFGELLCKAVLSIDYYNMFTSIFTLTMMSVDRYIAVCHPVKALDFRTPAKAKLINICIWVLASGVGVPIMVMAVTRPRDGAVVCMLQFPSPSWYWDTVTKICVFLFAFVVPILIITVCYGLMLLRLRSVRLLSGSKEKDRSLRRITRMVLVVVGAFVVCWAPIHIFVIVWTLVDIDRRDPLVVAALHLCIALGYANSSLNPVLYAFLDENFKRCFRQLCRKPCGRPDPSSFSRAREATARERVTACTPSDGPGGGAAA

| Structure (SMILES) | pKb |
| --- | --- |
| CC1(C)CC(=O)C2=C(C1)OC1=C(C(=O)CC(C)(C)C1)C2c1ccc(OCc2ccccc2Br)cc1 | 5.9 |
| Cc1ccccc1COc1ccc(C2C3=C(CC(C)(C)CC3=O)OC3=C2C(=O)CC(C)(C)C3)nc1 | 4.89 |
| CC(C)c1ccccc1COc1ccc(C2C3=C(CC(C)(C)CC3=O)OC3=C2C(=O)CC(C)(C)C3)cc1 | 6.08 |
| CCc1ccccc1COc1ccc(C2C3=C(CC(C)(C)CC3=O)OC3=C2C(=O)CC(C)(C)C3)cc1 | 5.5 |
| CC1CC(=O)C2=C(C1)OC1=C(C(=O)CC(C)C1)C2c1ccc(OCC2CCCCC2)cc1 (configuration not stated) | 5.83 |
| C#Cc1ccccc1COc1ccc(C2C3=C(CC(C)(C)CC3=O)OC3=C2C(=O)CC(C)(C)C3)cc1 | 6.18 |
| CC1(C)CC(=O)C2=C(C1)OC1=C(C(=O)CC(C)(C)C1)C2c1ccc(OCc2ccccc2C2CC2)cc1 | 5.53 |
| Cc1ccccc1COc1ccc(C2C3=C(CC(C)(C)CC3=O)OC3=C2C(=O)CC(C)(C)C3)cc1F | 6.01 |
| CC1(C)CC(=O)C2=C(C1)OC1=C(C(=O)CC(C)(C)C1)C2c1ccc(OCC2CCC2)cc1 | 5.72 |
| CC1(C)CC(=O)C2=C(C1)OC1=C(C(=O)CC(C)(C)C1)C2c1ccc(OCC2CCCC2)cc1 | 5.57 |

What follows are compounds tested against T1, Delta-type opioid receptor (assay: Agonist activity at human DOR expressed in CHO cells assessed as […] in ERK1/2 phosphorylation level). Details: not given.
Type: functional, cell-based

| Structure (SMILES) | EC50 |
| --- | --- |
| CN1CC[C@@]2(c3cccc(O)c3)Cc3nc4ccccc4cc3C[C@@H]2C1 | 31.6 nM |
| C=CCN1C[C@H](C)N([C@H](c2ccc(C(=O)NCC)cc2)c2cccc(OC)c2)C[C@H]1C | 43.7 nM |
